Assay results reported in patent US20110059979A1, “Piperidine/Cyclohexane Carboxamide Derivatives For Use as Vanilloid Receptor Modulators” (GLAXO GROUP LIMITED, priority 2003, published 2011).

Test system: FCA-Induced Hyperalgesia
Assay: FCA-Induced Hyperalgesia in the Guinea Pig
Type: in vivo
Conditions: dose of 5 mg/kg po
Method: (b) FCA-Induced Hyperalgesia in the Guinea Pig Compounds having a pKb>7.0 in vitro, according to model (a) were tested in this model of hyperalgesia (see WO 2004/024710 for details) and shown to be active.

With `Cn1c(=O)ccc2c(NC(=O)C3CCN(c4ccc(Cl)cc4)CC3)cccc21` [Example 1, 1-(4-Chlorophenyl)-N-(1-methyl-2-oxo-1,2-dihydro-5-quinolinyl)-4-piperidinecarboxamide] the “activity in FCA-induced hyperalgesia model” value was “significant activity”.
